Results from patent US20260109712A1, “RIFAMYCINS FOR NONTUBERCULOUS MYCOBACTERIA” (priority 2022, published 2026).
≈ marks a conversion by molar mass, not a printed value.

Experiments:
M. abscessus ATCC 19977 = assay: MIC assay in 96-well plate format, wild-type strain; assay type: cell-based, Mycobacterium abscessus; settings: Table 10
Outline: (§1)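 Two-fold, ten-point dilutions in 7H9 with 2% DMSO; mid-log culture diluted to OD600=0.1 (1×10^7 CFU/mL). Incubated 3 days at 37 °C, shaking 110 RPM; growth = Day 3 minus Day 0 OD600, expressed as percentage of drug-free growth and plotted against concentration. Two biological replicates.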

Δarr M. abscessus = assay: MIC assay, isogenic arr-deleted strain; assay type: cell-based, Mycobacterium abscessus; settings: Table 10
Outline: as §1

[1] = Plasma protein binding assay (rapid equilibrium dialysis); assay type: in vitro ADME
Outline: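 Plasma was spiked to 10,000 ng/mL compound and dialysed against PBS by rapid equilibrium dialysis for 4 h at 37° C with shaking at 300 RPM. Plasma and buffer aliquots were matrix-matched 1:1 […] and quantified by LC-MS/MS.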

Mycobacterium abscessus = assay: MIC against Mycobacterium abscessus (strain not given); assay type: cell-based; settings: Table 13; read-out: Mab MIC

In the case of CO[C@H]1/C=C/O[C@@]2(C)Oc3c(C)c(O)c4c(c3C2=O)C2=NC3(CCN(CC(C)C)CC3)NC2=C(NC(=O)/C(C)=C/C=C/[C@H](C)[C@H](O)[C@@H](C)[C@@H](O)[C@@H](C)[C@H](OC(=O)c2cccc(-c3ccccc3)c2)[C@@H]1C)C4=O [UMN18], the MICWT (M. abscessus ATCC 19977) is reported as 1.10 µM, the MICΔorr (Δarr M. abscessus) is reported as 1.05 µM and the ƒu [1] is reported as 0.01%. For the same compound, the plasma unbound fraction [1] was 0% and the MIC (Mycobacterium abscessus) was 1.1 µM (≈ 1.08 µg/mL).
CO[C@H]1/C=C/O[C@@]2(C)Oc3c(C)c(O)c4c(c3C2=O)C2=NC3(CCN(CC(C)C)CC3)NC2=C(NC(=O)/C(C)=C/C=C/[C@H](C)[C@H](O)[C@@H](C)[C@@H](O)[C@@H](C)[C@H](OC(=O)c2cccc(C(F)(F)F)c2)[C@@H]1C)C4=O [UMN19] showed an MICWT (M. abscessus ATCC 19977) of 0.48 µM, an MICΔorr (Δarr M. abscessus) of 0.36 µM and a ƒu [1] of 0%. The plasma unbound fraction [1] was 0% and the MIC (Mycobacterium abscessus) was 0.48 µM (≈ 0.469 µg/mL).
COc1cccc(C(=O)O[C@H]2[C@H](C)[C@H](O)[C@H](C)[C@@H](O)[C@@H](C)/C=C/C=C(\C)C(=O)NC3=C4NC5(CCN(CC(C)C)CC5)N=C4c4c(c(O)c(C)c5c4C(=O)[C@@](C)(O/C=C/[C@H](OC)[C@H]2C)O5)C3=O)c1 [UMN26] showed an MICWT (M. abscessus ATCC 19977) of 0.13 µM, an MICΔorr (Δarr M. abscessus) of 0.13 µM and a ƒu [1] of 0.02%. It also gave a plasma unbound fraction [1] of 0.02% and an MIC (Mycobacterium abscessus) of 0.13 µM (≈ 0.122 µg/mL).
CO[C@H]1/C=C/O[C@@]2(C)Oc3c(C)c(O)c4c(c3C2=O)C2=NC3(CCN(CC(C)C)CC3)NC2=C(NC(=O)/C(C)=C/C=C/[C@H](C)[C@H](O)[C@@H](C)[C@@H](O)[C@@H](C)[C@H](OC(=O)c2cccc(Cl)c2)[C@@H]1C)C4=O [UMN27] showed an MICWT (M. abscessus ATCC 19977) of 0.14 µM, an MICΔorr (Δarr M. abscessus) of 0.13 µM and a ƒu [1] of 0%. The plasma unbound fraction [1] was 0% and the MIC (Mycobacterium abscessus) was 0.14 µM (≈ 0.132 µg/mL).
With CO[C@H]1/C=C/O[C@@]2(C)Oc3c(C)c(O)c4c(c3C2=O)C2=NC3(CCN(CC(C)C)CC3)NC2=C(NC(=O)/C(C)=C/C=C/[C@H](C)[C@H](O)[C@@H](C)[C@@H](O)[C@@H](C)[C@H](OC(=O)c2ccc(-c3ccccc3)cc2)[C@@H]1C)C4=O [UMN28] the MICWT (M. abscessus ATCC 19977) was 0.85 µM, the MICΔorr (Δarr M. abscessus) was 1.00 µM and the ƒu [1] was 0%. The plasma unbound fraction [1] was 0% and the MIC (Mycobacterium abscessus) was 0.85 µM (≈ 0.837 µg/mL).
With CO[C@H]1/C=C/O[C@@]2(C)Oc3c(C)c(O)c4c(c3C2=O)C2=NC3(CCN(CC(C)C)CC3)NC2=C(NC(=O)/C(C)=C/C=C/[C@H](C)[C@H](O)[C@@H](C)[C@@H](O)[C@@H](C)[C@H](OC(=O)c2ccncc2)[C@@H]1C)C4=O [UMN47] the MICWT (M. abscessus ATCC 19977) was 0.017 µM, the MICΔorr (Δarr M. abscessus) was 0.017 µM and the ƒu [1] was 2.0%. The plasma unbound fraction [1] was 2.00% and the MIC (Mycobacterium abscessus) was 0.017 µM (≈ 0.0155 µg/mL).
CO[C@H]1/C=C/O[C@@]2(C)Oc3c(C)c(O)c4c(c3C2=O)C2=NC3(CCN(CC(C)C)CC3)NC2=C(NC(=O)/C(C)=C/C=C/[C@H](C)[C@H](O)[C@@H](C)[C@@H](O)[C@@H](C)[C@H](OC(=O)c2ccccn2)[C@@H]1C)C4=O [UMN48] gave an MICWT (M. abscessus ATCC 19977) of 0.02 µM, an MICΔorr (Δarr M. abscessus) of 0.026 µM and a ƒu [1] of 3.0%. For the same compound, the plasma unbound fraction [1] was 2.95% and the MIC (Mycobacterium abscessus) was 0.02 µM (≈ 0.0182 µg/mL).
Compound CO[C@H]1/C=C/O[C@@]2(C)Oc3c(C)c(O)c4c(c3C2=O)C2=NC3(CCN(CC(C)C)CC3)NC2=C(NC(=O)/C(C)=C/C=C/[C@H](C)[C@H](O)[C@@H](C)[C@@H](O)[C@@H](C)[C@H](OC(=O)c2ccnnc2)[C@@H]1C)C4=O [UMN49] has an MICWT (M. abscessus ATCC 19977) of 0.033 µM, an MICΔorr (Δarr M. abscessus) of 0.034 µM and a ƒu [1] of 8.2%. For the same compound, the plasma unbound fraction [1] was 8.22% and the MIC (Mycobacterium abscessus) was 0.033 µM (≈ 0.0301 µg/mL).
With CO[C@H]1/C=C/O[C@@]2(C)Oc3c(C)c(O)c4c(c3C2=O)C2=NC3(CCN(CC(C)C)CC3)NC2=C(NC(=O)/C(C)=C/C=C/[C@H](C)[C@H](O)[C@@H](C)[C@@H](O)[C@@H](C)[C@H](OC(=O)c2ccncn2)[C@@H]1C)C4=O [UMN50] the MICWT (M. abscessus ATCC 19977) was 0.035 µM, the MICΔorr (Δarr M. abscessus) was 0.036 µM and the ƒu [1] was 7.2%. The plasma unbound fraction [1] was 7.22% and the MIC (Mycobacterium abscessus) was 0.035 µM (≈ 0.0319 µg/mL).
